For 1 molecule, IC50 results are on record in article PMC7509217 (Cellular and Molecular Gastroenterology and Hepatology, 2020).

The experiment deals with rat ACC2 (acetyl-CoA carboxylase 2) (Rattus norvegicus, UniProt O70151). In words: citrate-activated ACC enzyme, […]bicarbonate incorporation into malonyl-CoA. The format is biochemical.
rat ACC2 (acetyl-CoA carboxylase 2), sequence (O70151 1-2456): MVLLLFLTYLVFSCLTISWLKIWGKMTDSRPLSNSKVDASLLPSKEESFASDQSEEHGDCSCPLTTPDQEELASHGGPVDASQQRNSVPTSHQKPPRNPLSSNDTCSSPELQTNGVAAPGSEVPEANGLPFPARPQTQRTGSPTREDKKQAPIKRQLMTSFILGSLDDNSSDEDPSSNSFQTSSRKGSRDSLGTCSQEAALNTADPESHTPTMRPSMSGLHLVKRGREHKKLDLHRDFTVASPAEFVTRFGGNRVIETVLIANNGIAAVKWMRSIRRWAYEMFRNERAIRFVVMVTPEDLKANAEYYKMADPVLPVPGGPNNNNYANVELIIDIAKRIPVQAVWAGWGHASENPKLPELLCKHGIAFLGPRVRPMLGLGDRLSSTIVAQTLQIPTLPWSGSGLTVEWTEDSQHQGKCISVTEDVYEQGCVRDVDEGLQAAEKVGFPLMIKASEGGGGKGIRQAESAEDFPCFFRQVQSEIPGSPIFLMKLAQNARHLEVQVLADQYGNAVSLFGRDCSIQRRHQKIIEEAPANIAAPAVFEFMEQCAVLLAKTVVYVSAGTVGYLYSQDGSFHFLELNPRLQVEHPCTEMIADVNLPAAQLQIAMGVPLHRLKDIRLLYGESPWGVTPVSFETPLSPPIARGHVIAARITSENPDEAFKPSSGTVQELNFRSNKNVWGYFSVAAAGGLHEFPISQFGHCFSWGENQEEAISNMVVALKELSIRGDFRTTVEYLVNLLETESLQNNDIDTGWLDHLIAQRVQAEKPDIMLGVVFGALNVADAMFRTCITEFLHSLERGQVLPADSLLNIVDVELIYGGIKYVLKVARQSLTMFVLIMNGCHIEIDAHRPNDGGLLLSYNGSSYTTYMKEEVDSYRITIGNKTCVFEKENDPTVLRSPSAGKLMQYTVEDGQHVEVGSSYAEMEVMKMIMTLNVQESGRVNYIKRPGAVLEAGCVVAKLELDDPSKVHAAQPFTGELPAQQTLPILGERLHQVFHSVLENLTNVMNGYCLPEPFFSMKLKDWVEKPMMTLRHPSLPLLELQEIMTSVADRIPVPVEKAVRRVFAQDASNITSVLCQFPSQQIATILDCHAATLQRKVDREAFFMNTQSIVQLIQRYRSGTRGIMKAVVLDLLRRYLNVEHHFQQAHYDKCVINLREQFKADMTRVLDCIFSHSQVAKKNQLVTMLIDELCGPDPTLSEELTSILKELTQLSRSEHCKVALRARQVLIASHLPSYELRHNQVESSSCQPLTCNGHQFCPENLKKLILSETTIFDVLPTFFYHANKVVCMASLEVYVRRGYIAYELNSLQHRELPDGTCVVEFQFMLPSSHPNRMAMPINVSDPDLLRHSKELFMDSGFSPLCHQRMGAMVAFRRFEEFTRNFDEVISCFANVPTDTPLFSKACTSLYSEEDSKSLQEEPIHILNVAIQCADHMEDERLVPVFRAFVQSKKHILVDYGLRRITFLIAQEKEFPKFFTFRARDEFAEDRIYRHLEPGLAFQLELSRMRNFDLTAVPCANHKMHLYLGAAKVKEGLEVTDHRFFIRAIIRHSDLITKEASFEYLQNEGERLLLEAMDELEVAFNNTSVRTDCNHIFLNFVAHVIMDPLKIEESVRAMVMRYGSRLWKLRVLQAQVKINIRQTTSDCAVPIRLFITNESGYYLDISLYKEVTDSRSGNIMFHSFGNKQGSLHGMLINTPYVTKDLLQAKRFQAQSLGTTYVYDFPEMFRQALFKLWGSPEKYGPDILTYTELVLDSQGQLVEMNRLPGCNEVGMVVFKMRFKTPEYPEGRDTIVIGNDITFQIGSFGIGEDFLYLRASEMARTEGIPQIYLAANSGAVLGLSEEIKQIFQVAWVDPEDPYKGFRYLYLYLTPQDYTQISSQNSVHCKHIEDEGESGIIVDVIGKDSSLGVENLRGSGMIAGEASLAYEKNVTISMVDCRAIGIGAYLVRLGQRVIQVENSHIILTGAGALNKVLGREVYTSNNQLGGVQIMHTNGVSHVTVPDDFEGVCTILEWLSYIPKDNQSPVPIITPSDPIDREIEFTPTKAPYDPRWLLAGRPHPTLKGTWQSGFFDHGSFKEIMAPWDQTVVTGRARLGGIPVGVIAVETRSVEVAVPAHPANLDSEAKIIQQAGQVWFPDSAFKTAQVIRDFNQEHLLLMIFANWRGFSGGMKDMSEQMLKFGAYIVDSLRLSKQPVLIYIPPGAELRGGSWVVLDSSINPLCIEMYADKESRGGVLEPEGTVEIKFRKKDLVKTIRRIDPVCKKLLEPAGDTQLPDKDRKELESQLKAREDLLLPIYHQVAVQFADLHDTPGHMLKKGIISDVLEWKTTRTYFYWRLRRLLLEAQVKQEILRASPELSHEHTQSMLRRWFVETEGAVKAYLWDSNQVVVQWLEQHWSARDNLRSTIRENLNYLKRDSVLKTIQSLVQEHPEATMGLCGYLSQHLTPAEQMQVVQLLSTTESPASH

With `COc1cc(C(=O)N2CCC3(CC2)CC(=O)c2c(cnn2C(C)C)C3)cc(-c2ccc(C(=O)O)cc2)n1` [PF-05221304], the IC50 is 8.2 ± 4.1 nM.
